Experimental data published in ChEMBL document CHEMBL1157898 (Bioorg Med Chem Lett, 2010).

Experiments:
[1] = target: RAF proto-oncogene serine/threonine-protein kinase (Homo sapiens) (UniProt P04049); assay: Inhibition of C-Raf; conditions: concentration not given here
[2] = Inhibition of AMPK; conditions: concentration not given here
[3] = target: Serine/threonine-protein kinase Chk2 (Homo sapiens) (UniProt O96017); assay: Inhibition of CHK2; conditions: concentration not given here
[4] = target: Serine/threonine-protein kinase PAK 2 (Homo sapiens) (UniProt Q13177); assay: Inhibition of PAK2; conditions: concentration not given here
[5] = target: T1, Serine/threonine-protein kinase D2 (Homo sapiens) (UniProt Q9BZL6); assay: Inhibition of PKD2; conditions: concentration not given here
T1 sequence (whole entry): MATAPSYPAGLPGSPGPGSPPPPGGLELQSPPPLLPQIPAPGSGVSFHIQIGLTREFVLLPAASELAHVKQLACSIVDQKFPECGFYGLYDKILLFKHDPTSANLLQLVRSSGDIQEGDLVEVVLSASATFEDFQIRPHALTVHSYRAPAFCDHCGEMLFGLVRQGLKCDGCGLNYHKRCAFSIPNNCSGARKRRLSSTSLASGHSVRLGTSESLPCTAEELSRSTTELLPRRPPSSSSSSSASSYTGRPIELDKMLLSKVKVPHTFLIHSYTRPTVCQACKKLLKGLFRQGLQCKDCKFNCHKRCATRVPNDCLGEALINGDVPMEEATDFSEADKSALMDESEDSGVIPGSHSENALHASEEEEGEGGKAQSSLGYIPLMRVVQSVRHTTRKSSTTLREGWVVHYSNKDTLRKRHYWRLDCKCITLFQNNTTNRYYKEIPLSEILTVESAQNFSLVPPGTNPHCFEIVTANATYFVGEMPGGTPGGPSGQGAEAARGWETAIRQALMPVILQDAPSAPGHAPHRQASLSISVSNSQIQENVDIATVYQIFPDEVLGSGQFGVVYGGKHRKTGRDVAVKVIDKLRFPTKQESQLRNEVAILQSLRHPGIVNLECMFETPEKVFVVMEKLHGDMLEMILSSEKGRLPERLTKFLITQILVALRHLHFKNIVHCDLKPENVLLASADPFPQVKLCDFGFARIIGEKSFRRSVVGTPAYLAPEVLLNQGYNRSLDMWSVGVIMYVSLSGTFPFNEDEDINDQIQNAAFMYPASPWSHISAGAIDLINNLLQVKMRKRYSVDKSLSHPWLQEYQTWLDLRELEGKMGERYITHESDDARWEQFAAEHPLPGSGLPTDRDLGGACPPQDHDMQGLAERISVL

[6] = target: Casein kinase I isoform delta (Homo sapiens) (UniProt P48730); assay: Inhibition of casein kinase delta at 10 uM; values are per cent of control
H4 = assay: Toxicity in human H4 cells at 10 uM; assay type: cell-based; conditions: h4, 10 µM
[7] = Inhibition of PKA; conditions: concentration not given here
[8] = target: Mitogen-activated protein kinase 14 (Homo sapiens) (UniProt Q16539); assay: Inhibition of P38alpha; conditions: concentration not given here
[9] = target: Hepatocyte growth factor receptor (Homo sapiens) (UniProt P08581); assay: Inhibition of MET; conditions: concentration not given here
[10] = target: T2, Calcium/calmodulin-dependent protein kinase type IV (Homo sapiens) (UniProt Q16566); assay: Inhibition of CAMK4; conditions: concentration not given here
T2 sequence (whole entry): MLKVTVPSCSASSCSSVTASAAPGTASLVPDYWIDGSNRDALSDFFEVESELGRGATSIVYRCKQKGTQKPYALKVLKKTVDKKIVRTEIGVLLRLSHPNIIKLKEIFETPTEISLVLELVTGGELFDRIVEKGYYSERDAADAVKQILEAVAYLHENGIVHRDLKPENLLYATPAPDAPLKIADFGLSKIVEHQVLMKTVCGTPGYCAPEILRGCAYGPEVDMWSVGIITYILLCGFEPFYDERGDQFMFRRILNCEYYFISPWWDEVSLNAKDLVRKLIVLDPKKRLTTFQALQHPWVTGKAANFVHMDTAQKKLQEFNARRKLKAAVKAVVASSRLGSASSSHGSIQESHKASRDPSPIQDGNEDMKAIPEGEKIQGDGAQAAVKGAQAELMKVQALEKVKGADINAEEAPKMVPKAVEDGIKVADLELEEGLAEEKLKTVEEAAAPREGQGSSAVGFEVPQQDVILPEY

[11] = target: Receptor-type tyrosine-protein kinase FLT3 (Homo sapiens) (UniProt P36888); assay: Inhibition of FLT3; conditions: concentration not given here
[12] = target: Protein kinase C beta type (Homo sapiens) (UniProt P05771); assay: Inhibition of PKCbeta2; conditions: concentration not given here
[13] = target: T3, Aurora kinase A (Homo sapiens) (UniProt O14965); assay: Inhibition of Aurora A; conditions: concentration not given here
T3 sequence (whole entry): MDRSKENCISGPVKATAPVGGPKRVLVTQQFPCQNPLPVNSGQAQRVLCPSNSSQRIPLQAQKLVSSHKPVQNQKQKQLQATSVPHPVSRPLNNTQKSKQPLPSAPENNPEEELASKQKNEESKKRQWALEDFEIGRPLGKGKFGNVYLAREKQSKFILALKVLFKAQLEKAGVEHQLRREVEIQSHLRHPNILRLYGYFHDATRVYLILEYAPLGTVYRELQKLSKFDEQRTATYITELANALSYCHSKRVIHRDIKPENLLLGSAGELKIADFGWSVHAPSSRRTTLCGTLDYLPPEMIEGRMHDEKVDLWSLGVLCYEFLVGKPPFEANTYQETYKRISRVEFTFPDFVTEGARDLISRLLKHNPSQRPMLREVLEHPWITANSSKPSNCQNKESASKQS

[14] = target: T4, Gamma-secretase (Homo sapiens) (UniProt Q96BI3+Q9NZ42+Q8WW43+P49768+Q92542+P49810); assay: Inhibition of gamma secretase mediated amyloid beta 38 generation in human H4 cells at 10 uM by LPECL assay; values are per cent of control
[15] = target: MAP/microtubule affinity-regulating kinase 3 (Homo sapiens) (UniProt P27448); assay: Inhibition of C-TAK1; conditions: concentration not given here
[16] = target: T4, Gamma-secretase (Homo sapiens); assay: Inhibition of gamma secretase mediated amyloid beta 40 generation in human H4 cells at 10 uM by LPECL assay; values are per cent of control
[17] = target: T4, Gamma-secretase (Homo sapiens); assay: Inhibition of gamma secretase mediated amyloid beta 42 generation in human H4 cells at 10 uM by LPECL assay; values are per cent of control
[18] = target: Tyrosine-protein kinase Lyn (Homo sapiens) (UniProt P07948); assay: Inhibition of LYN; conditions: concentration not given here
[19] = target: Mitogen-activated protein kinase 3 (Homo sapiens) (UniProt P27361); assay: Inhibition of ERK1; conditions: concentration not given here
[20] = target: Insulin-like growth factor 1 receptor (Homo sapiens) (UniProt P08069); assay: Inhibition of IGF1R; conditions: concentration not given here
[21] = target: Tyrosine-protein kinase BTK (Homo sapiens) (UniProt Q06187); assay: Inhibition of BTK; conditions: concentration not given here
[22] = Inhibition of CAMK2; conditions: concentration not given here

Chain of Mitogen-activated protein kinase 14 (Homo sapiens) (Q16539 whole entry): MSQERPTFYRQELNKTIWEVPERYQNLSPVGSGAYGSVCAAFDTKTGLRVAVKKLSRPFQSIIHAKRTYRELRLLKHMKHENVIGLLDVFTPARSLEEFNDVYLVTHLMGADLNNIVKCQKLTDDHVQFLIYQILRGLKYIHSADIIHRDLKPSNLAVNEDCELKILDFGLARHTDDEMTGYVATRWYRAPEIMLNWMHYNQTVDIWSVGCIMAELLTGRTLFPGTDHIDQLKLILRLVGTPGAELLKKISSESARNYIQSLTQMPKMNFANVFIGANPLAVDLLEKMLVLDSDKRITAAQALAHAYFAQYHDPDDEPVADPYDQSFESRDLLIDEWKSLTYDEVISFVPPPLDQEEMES
Chain of Hepatocyte growth factor receptor (Homo sapiens) (P08581 whole entry): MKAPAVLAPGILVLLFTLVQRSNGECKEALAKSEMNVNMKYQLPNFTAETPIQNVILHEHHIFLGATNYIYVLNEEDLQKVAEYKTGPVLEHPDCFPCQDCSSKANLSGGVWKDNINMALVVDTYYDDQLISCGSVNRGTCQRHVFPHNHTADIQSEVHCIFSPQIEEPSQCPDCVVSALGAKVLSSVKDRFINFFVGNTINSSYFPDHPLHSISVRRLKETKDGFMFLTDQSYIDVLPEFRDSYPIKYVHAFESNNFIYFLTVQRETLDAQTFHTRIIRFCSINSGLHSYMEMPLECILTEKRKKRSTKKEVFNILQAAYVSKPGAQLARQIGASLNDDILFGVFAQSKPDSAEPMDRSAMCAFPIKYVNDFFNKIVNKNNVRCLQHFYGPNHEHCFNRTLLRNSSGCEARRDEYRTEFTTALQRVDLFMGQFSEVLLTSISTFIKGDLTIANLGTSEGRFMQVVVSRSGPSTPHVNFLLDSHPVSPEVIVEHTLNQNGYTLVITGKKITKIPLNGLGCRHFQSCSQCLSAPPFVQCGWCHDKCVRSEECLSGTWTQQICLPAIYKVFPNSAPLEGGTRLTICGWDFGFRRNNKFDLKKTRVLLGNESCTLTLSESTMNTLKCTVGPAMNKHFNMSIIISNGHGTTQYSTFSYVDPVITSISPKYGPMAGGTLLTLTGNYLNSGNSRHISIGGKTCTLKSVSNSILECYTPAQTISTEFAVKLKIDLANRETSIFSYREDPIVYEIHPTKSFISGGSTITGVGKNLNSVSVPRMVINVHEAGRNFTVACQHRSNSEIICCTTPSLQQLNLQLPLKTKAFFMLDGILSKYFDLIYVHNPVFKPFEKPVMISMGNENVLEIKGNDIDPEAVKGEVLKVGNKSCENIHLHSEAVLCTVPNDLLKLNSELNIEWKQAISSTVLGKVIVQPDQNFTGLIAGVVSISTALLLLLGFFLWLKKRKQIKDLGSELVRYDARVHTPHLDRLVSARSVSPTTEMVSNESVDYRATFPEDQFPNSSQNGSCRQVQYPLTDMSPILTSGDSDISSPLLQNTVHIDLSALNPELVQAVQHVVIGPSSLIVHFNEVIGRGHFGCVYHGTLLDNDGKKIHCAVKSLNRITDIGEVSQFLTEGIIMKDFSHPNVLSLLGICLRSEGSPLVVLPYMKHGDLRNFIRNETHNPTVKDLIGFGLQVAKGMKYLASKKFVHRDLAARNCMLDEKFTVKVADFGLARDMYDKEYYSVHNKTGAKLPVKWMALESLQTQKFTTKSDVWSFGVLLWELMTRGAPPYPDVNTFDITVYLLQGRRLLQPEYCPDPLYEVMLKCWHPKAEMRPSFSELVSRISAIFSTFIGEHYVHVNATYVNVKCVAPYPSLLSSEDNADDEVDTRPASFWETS
Chain of Tyrosine-protein kinase BTK (Homo sapiens) (Q06187 whole entry): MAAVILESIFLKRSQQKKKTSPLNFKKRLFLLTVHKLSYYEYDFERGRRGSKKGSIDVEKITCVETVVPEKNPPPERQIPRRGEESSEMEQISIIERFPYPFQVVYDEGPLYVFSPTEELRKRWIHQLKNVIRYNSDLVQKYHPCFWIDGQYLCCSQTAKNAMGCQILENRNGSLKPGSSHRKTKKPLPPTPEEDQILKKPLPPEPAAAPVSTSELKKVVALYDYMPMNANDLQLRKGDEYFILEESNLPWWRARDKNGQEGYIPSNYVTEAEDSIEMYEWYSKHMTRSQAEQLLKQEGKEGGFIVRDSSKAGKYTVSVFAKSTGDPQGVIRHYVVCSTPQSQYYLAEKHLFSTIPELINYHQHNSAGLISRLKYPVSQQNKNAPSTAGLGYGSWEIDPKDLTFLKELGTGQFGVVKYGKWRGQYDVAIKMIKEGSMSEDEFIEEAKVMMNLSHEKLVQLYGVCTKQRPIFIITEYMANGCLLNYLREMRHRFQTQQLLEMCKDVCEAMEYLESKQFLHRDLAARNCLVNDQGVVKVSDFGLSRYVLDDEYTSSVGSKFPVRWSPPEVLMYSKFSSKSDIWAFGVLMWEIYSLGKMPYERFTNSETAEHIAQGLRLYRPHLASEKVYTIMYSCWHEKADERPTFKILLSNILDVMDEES
Chain of MAP/microtubule affinity-regulating kinase 3 (Homo sapiens) (P27448 whole entry, looked up): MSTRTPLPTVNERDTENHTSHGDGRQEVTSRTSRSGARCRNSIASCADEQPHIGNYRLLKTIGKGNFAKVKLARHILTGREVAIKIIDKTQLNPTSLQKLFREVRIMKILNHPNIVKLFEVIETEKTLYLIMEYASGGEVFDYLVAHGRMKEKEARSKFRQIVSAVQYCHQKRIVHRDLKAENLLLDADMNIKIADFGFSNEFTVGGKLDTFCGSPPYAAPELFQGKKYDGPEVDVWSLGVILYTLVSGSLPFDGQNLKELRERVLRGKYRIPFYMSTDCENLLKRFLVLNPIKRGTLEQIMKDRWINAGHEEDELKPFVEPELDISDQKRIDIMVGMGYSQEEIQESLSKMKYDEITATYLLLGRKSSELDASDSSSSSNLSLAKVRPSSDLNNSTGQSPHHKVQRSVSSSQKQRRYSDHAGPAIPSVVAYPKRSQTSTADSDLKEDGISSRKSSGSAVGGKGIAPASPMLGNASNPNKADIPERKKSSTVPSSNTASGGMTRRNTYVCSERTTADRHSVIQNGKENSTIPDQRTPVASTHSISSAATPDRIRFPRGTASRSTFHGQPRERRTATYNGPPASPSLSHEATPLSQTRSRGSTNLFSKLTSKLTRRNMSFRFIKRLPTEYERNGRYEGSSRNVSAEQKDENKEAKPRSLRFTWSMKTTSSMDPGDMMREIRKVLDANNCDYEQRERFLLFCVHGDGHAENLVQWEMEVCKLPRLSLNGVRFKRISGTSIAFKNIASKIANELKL
Chain of Serine/threonine-protein kinase Chk2 (Homo sapiens) (O96017 whole entry): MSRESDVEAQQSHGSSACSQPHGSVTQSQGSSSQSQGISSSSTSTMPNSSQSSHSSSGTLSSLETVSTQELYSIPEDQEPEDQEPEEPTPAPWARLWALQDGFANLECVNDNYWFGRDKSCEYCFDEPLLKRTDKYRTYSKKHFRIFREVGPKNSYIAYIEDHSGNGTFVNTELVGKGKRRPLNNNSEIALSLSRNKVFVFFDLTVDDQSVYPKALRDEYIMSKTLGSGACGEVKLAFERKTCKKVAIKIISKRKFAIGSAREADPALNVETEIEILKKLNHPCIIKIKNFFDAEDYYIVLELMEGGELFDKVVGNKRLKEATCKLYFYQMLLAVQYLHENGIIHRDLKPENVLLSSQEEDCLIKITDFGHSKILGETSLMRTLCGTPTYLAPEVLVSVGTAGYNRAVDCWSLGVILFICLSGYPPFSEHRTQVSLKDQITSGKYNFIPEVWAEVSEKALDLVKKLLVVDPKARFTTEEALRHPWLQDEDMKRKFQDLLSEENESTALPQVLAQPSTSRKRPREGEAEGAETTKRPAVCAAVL
Chain of Mitogen-activated protein kinase 3 (Homo sapiens) (P27361 whole entry): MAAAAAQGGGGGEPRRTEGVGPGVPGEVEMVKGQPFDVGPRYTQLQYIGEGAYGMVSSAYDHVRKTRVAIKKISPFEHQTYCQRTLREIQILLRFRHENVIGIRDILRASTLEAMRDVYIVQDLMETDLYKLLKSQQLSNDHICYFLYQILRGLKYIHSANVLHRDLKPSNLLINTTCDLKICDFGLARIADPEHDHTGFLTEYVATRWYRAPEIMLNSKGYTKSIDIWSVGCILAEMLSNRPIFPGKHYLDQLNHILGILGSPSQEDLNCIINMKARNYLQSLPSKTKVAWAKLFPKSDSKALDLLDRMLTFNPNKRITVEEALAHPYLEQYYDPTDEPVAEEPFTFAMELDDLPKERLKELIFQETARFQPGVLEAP
Chain of Serine/threonine-protein kinase PAK 2 (Homo sapiens) (Q13177 whole entry): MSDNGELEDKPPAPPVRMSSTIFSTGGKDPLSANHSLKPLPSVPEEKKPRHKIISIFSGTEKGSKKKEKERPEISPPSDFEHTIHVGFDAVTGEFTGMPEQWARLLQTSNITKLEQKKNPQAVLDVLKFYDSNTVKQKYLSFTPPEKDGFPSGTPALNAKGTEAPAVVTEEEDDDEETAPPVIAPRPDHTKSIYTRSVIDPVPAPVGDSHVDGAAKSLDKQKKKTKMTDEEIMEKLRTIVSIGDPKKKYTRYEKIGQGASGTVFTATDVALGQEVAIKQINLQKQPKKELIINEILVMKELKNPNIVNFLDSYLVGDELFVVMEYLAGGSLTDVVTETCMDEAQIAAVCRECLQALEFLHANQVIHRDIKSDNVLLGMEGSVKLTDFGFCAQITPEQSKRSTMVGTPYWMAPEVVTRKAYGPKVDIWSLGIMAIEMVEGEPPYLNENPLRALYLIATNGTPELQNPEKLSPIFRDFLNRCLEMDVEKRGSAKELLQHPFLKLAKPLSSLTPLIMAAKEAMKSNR
Chain of Casein kinase I isoform delta (Homo sapiens) (P48730 whole entry, looked up, canonical isoform): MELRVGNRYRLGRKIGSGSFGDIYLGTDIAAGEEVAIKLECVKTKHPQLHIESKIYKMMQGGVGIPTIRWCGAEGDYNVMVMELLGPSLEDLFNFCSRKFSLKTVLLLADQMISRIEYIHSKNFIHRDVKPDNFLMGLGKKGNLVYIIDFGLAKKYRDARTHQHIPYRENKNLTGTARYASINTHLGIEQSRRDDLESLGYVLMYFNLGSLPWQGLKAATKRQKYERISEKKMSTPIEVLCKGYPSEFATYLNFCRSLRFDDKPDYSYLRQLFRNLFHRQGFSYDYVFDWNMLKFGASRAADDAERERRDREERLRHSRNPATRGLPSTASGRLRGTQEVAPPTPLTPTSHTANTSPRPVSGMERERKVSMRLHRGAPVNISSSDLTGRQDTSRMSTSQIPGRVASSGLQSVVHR

For `COc1cc(OC)c(/C=C2/C(=O)Nc3ccc(Cl)cc32)c(OC)c1`, the inhibition [1] was < 20%, the inhibition [2] was < 20% and the inhibition [3] was < 20%. The inhibition [4] was < 20%, the inhibition [5] was < 20% and the residual activity [6] was 87%. The Activity (H4) was 20 µM, the inhibition [7] was < 20% and the inhibition [8] was < 20%. For the same molecule, the inhibition [9] was < 20%, the inhibition [10] was < 20% and the inhibition [11] was < 20%. The inhibition [12] was < 20%, the inhibition [13] was < 20% and the residual activity [14] was 35%. For the same molecule, the inhibition [15] was < 20%, the residual activity [16] was 65% and the residual activity [17] was 65%. For the same molecule, the inhibition [18] was < 20%, the inhibition [19] was < 20% and the inhibition [20] was < 20%. The inhibition [21] was < 20% and the inhibition [22] was < 20%.
